Laboratory results taken from patent publication US20210196719A1, “USE OF CDK4/6 INHIBITOR IN COMBINATION WITH EGFR INHIBITOR IN THE PREPARATION OF MEDICAMENT FOR TREATING TUMOR DISEASES” (JIANGSU HENGRUI MEDICINE CO., LTD., priority 2018, published 2021).
Read-outs that look alike come from different tables or passages of the source.

Legend:
[1] = test system: human lung cancer NCI-H1975 transplanted tumor; assay: Human lung cancer NCI-H1975 transplanted tumor model of nude mice; details: for Tumor volume (mm^3) D 1: D 1 (at grouping); for Tumor volume (mm^3) D 1 / Tumor weight / RTV (relative tumor volume) / Tumor volume (mm^3) D 22: x ± SE; for Tumor weight: D 22, after sacrifice; for T/C(%) (relative tumor growth rate): TRTV/CRTV; for RTV (relative tumor volume): Vt/V0; for Tumor volume (mm^3) D 22: intragastric q.d. 21 days, gefitinib 30, drug A 100(50), drug B 5 mg/kg
[2] = Body weight of nude mice in the NCI-H1975 transplanted tumor study; details: x ± SE
[3] = test system: human non-small cell lung adenocarcinoma cells (NCI-H1975); assay: Proliferation inhibition of NCI-H1975 cells (SRB method, 7 days); type: cell-based; details: 168 h, read-out: Inhibition rate (%)
[4] = mouse, in vivo

Row | SMILES | Tumor volume (mm^3) D 1 [1] [mm^3] | Tumor weight [1] [g] | T/C(%) (relative tumor growth rate) ([1]; D 22) | RTV (relative tumor volume) ([1]; D 22) | Tumor volume (mm^3) D 22 ([1]; D 22) [mm^3] | Average body weight (g) D 1 ([2]; D 1, n=3) [g] | Average body weight (g) D 22 ([2]; D 22, intragastric q.d. 21 days, gefitinib 30, drug A 100(50), drug B 5 mg/kg) [g] | inhibition at 0.005 µM ([3]; Drug B alone 5 nM) [%] | inhibition at 0.01 µM ([3]; Drug B alone 10 nM) [%] | Average body weight (g) D 1 [4] [g] | IR (%) (tumor inhibition percentage) ([1]; D 22, by tumor weight vs control)
1 | COc1cc2ncnc(Nc3ccc(F)c(Cl)c3)c2cc1OCCCN1CCOCC1 [Gefitinib, gefitinib, reference compound] | 130 ± 41 | 0.4097 ± 0.1605 | 66.81 | 3.18±0.65 | 477±162 | 21.8 ± 0.6 | 24.5 ± 0.8 |  |  |  | 
2 | C=CC(=O)Nc1cc(Nc2nccc(-c3cn(C4CC4)c4ccccc34)n2)c(OC)cc1N(C)CCN(C)C [Drug B] | 130 ± 44 | 0.1091 ± 0.0621 | 26.14 | 1.25±0.53 | 125±58 |  |  | 50.3 | 53.8 | 22.8 ± 0.7 | 81.69
